Converted amounts (≈) assume the structure as drawn. Residues, ends and D or L forms follow the SMILES beside them.
What was measured:
[1] = system: S. aureus 3126(R) (MRSA 3126); type: cell-based, Staphylococcus aureus; details: multidrug-resistant strain; 1% peptone media, 16 h at 37 °C
[2] = system: Acinetobacter baumannii KCTC 2508; type: cell-based; details: KCTC 2508, 16 h
Description: (§1) Four Gram-negative bacteria species (Escherichia coli KCTC 1682, Acinetobacter baumannii KCTC 2508, Pseudomonas aeruginosa KCTC 1637 and Salmonella typhimurium KCTC 1926) and three Gram-positive bacteria species (Staphylococcus aureus KCTC 1621, Bacillus subtilis KCTC 3028 and Staphylococcus epidermidis KCTC 1917) were procured from the Korean Collection for Type Cultures (KCTC). Multi-drug-resistant Gram-negative bacteria (Salmonella typhimurium CCARM 8003 and 8007, Escherichia coli CCARM 1229 and 1238, Pseudomonas aeruginosa CCARM 2002 and 2095 and Acinetobacter baumannii CCARM 12035 and 12036) were obtained from the Culture Collection of Antibiotic-Resistant Microbes (CCARM). To determine MICs, bacteria were cultured in Luria-Bertani (LB) medium for overnight at 37 °C. An aliquot of the culture was incubated in 1% peptone media at 37 °C until mid-log phase. 100 μl of serial 2-fold diluted peptides were treated in 96 well plates and added to 100 μl of 2 × 10^6 CFU/ml bacterial suspensions in 1% peptone media for 16 h at 37 °C.

[3] = system: Salmonella typhimurium CCARM 8003 (MDRST 8003); type: cell-based; details: multidrug-resistant strain; 1% peptone media, 16 h at 37 °C
Description: as §1

[4] = system: Acinetobacter baumannii CCARM 12036 (MDRAB 12036); type: cell-based; details: multidrug-resistant strain; 1% peptone media, 16 h at 37 °C
Description: as §1

[5] = system: Escherichia coli KCTC 1682; type: cell-based; details: KCTC 1682, 16 h
Description: as §1

[6] = system: Pseudomonas aeruginosa CCARM 2002 (MDRPA 2002); type: cell-based; details: multidrug-resistant strain; 1% peptone media, 16 h at 37 °C
Description: as §1

[7] = system: Salmonella typhimurium KCTC 1926; type: cell-based; details: KCTC 1926, 16 h
Description: as §1

[8] = system: Acinetobacter baumannii CCARM 12035 (MDRAB 12035); type: cell-based; details: multidrug-resistant strain; 1% peptone media, 16 h at 37 °C
Description: as §1

[9] = system: Staphylococcus aureus KCTC 1621; type: cell-based; details: KCTC 1621, 16 h
Description: as §1

[10] = system: Gram-negative bacteria (E. coli, A. baumannii, P. aeruginosa, S. typhimurium); type: cell-based; details: 16 h
Description: as §1

[11] = system: Escherichia coli CCARM 1238 (MDREC 1238); type: cell-based; details: multidrug-resistant strain; 1% peptone media, 16 h at 37 °C
Description: as §1

[12] = system: Staphylococcus epidermidis KCTC 1917; type: cell-based; details: KCTC 1917, 16 h
Description: as §1

[13] = system: Pseudomonas aeruginosa KCTC 1637; type: cell-based; details: KCTC 1637, 16 h
Description: as §1

[14] = system: Pseudomonas aeruginosa CCARM 2095 (MDRPA 2095); type: cell-based; details: multidrug-resistant strain; 1% peptone media, 16 h at 37 °C
Description: as §1

[15] = system: Gram-positive bacteria (S. aureus, B. subtilis, S. epidermidis); type: cell-based; details: 16 h
Description: as §1

[16] = system: Bacillus subtilis KCTC 3028; type: cell-based; details: KCTC 3028, 16 h
Description: as §1

[17] = system: Escherichia coli CCARM 1229 (MDREC 1229); type: cell-based; details: multidrug-resistant strain; 1% peptone media, 16 h at 37 °C
Description: as §1

[18] = system: Salmonella typhimurium CCARM 8007 (MDRST 8007); type: cell-based; details: multidrug-resistant strain; 1% peptone media, 16 h at 37 °C
Description: as §1

[19] = system: human red blood cells (hRBCs); assay: Haemolytic activity; type: cell-based; details: red cells of human, 1 h
Procedure: Peptide-induced lysis of human red blood cells (hRBCs) was determined as follows. Fresh hRBCs were washed 2–3 times with phosphate-buffered saline (PBS) by centrifugation for 5 min at 2500 rpm at 4 °C. Peptides in PBS were incubated with 4% (v/v) hRBCs for 1 h at 37 °C. Samples were then centrifuged for 5 min at 1000 × g. The absorbance of the supernatant at 405 nm was used as a measure of haemolysis. As a positive control, 100% haemolysis was obtained by treating hRBCs with 0.1% Triton X-100.

[20] = system: S. aureus 3089(R) (MRSA 3089); type: cell-based, Staphylococcus aureus; details: multidrug-resistant strain; 1% peptone media, 16 h at 37 °C
[21] = system: S. aureus 3108(R) (MRSA 3108); type: cell-based, Staphylococcus aureus; details: multidrug-resistant strain; 1% peptone media, 16 h at 37 °C

Compound	MIC, MRSA 3126 [1]	MIC, A. baumannii [2]	MIC, MDRST 8003 [3]	MIC, MDRAB 12036 [4]	MIC, E. coli [5]	MIC, MDRPA 2002 [6]	MIC, S. typhimurium [7]	MIC, MDRAB 12035 [8]	MIC, S. aureus [9]	Average MIC, Gram-negative [10]	MIC, MDREC 1238 [11]	MIC, S. epidermidis [12]	MIC, P. aeruginosa [13]	MIC, MDRPA 2095 [14]	Average MIC, Gram-positive [15]	MIC, B. subtilis [16]	MIC, MDREC 1229 [17]	MIC, MDRST 8007 [18]	MHC (minimal peptide concentration that produces haemolysis) [19]	MIC, MRSA 3089 [20]	other results
CC[C@H](C)[C@H](NC(=O)CNC(=O)[C@H](CCC(N)=O)NC(=O)[C@H](Cc1ccccc1)NC(=O)[C@@H](NC(=O)[C@H](CCCCN)NC(=O)[C@H](CCCCN)NC(=O)[C@H](CC(C)C)NC(=O)[C@H](C)NC(=O)[C@H](CC(N)=O)NC(=O)[C@H](CC(C)C)NC(=O)CN)C(C)C)C(=O)N[C@@H](Cc1c[nH]cn1)C(=O)N[C@@H](CCCCN)C(=O)N[C@@H](C)C(=O)N[C@H](C(=O)N[C@@H](CCCCN)C(=O)N[C@@H](CCCCN)C(=O)N[C@H](C(=O)N[C@@H](CC(N)=O)C(=O)N[C@@H](CC(N)=O)C(=O)N[C@@H](Cc1c[nH]cn1)C(=O)N[C@H](C(=O)N[C@@H](CCC(N)=O)C(=O)O)C(C)C)[C@@H](C)CC)[C@@H](C)CC [Ps-K14-K18] (H-GLNALKKVFQGIHKAIKKINNHVQ-OH)	4 µM (≈ 10.8 µg/mL)	2 µM (≈ 5.4 µg/mL)	4 µM (≈ 10.8 µg/mL)	2 µM (≈ 5.4 µg/mL)	1 µM (≈ 2.7 µg/mL)	2 µM (≈ 5.4 µg/mL)	2 µM (≈ 5.4 µg/mL)	2 µM (≈ 5.4 µg/mL)	8 µM (≈ 21.6 µg/mL)	1.75 µM	2 µM (≈ 5.4 µg/mL)	16 µM (≈ 43.2 µg/mL)	2 µM (≈ 5.4 µg/mL)	4 µM (≈ 10.8 µg/mL)	10.67 µM	8 µM (≈ 21.6 µg/mL)	2 µM (≈ 5.4 µg/mL)	4 µM (≈ 10.8 µg/mL)	100 µM	8 µM (≈ 21.6 µg/mL)	haemolysis at 100 μM [19]; 100: 1.1%; MIC, MRSA 3108 [21]: 4 µM (≈ 10.8 µg/mL)
CC[C@H](C)[C@H](NC(=O)[C@H](C)NC(=O)[C@H](CCC(=O)O)NC(=O)[C@H](Cc1c[nH]cn1)NC(=O)[C@@H](NC(=O)[C@@H]1CCCN1C(=O)[C@H](CCC(N)=O)NC(=O)[C@H](Cc1ccccc1)NC(=O)[C@@H](NC(=O)[C@H](CCCCN)NC(=O)[C@H](CCCCN)NC(=O)[C@H](CC(C)C)NC(=O)[C@H](C)NC(=O)[C@H](CC(N)=O)NC(=O)[C@H](CC(C)C)NC(=O)CN)C(C)C)[C@@H](C)CC)C(=O)N[C@@H](CCCCN)C(=O)N[C@@H](CC(C)C)C(=O)N[C@H](C(=O)N[C@@H](CC(N)=O)C(=O)N[C@@H](CC(N)=O)C(=O)N[C@@H](Cc1c[nH]cn1)C(=O)N[C@H](C(=O)N[C@@H](CCC(N)=O)C(=O)O)C(C)C)[C@@H](C)CC [Ps-P] (H-GLNALKKVFQPIHEAIKLINNHVQ-OH)	32 µM (≈ 87.2 µg/mL)	8 µM (≈ 21.8 µg/mL)	16 µM (≈ 43.6 µg/mL)	8 µM (≈ 21.8 µg/mL)	8 µM (≈ 21.8 µg/mL)	16 µM (≈ 43.6 µg/mL)	8 µM (≈ 21.8 µg/mL)	8 µM (≈ 21.8 µg/mL)	32 µM (≈ 87.2 µg/mL)	10 µM	8 µM (≈ 21.8 µg/mL)	32 µM (≈ 87.2 µg/mL)	16 µM (≈ 43.6 µg/mL)	16 µM (≈ 43.6 µg/mL)	32 µM	32 µM (≈ 87.2 µg/mL)	8 µM (≈ 21.8 µg/mL)	8 µM (≈ 21.8 µg/mL)	400 µM	32 µM (≈ 87.2 µg/mL)	haemolysis at 400 μM [19]; 400: 0.5%; MIC, MRSA 3108 [21]: 32 µM (≈ 87.2 µg/mL)
